Assay results as given in patent publication US8030321B2, “Benzofuro- and benzothienopyrimidine modulators of the histamine H4 receptor” (Janssen Pharmaceutica, NV, priority 2006, dated 2011).
Structures can show the parent of a compound that is named as a salt. Where two headings read alike, the source gives them in different places.

Biological target: T1, human histamine H4 receptor (Homo sapiens, UniProt Q9H3N8)
T1 construct: expressed in transfected cells; host or cells: SK-N-MC cells or COS7 cells, transiently transfected; cell membranes used
Assay: Binding Assay on Recombinant Human Histamine H4 Receptor
Experimental: Binding Assay on Recombinant Human Histamine H4 Receptor
SK-N-MC cells or COS7 cells were transiently transfected with pH4R and grown in 150 cm^2 tissue culture dishes. Cells were washed with saline solution, scraped with a cell scraper and collected by centrifugation (1000 rpm, 5 min). Cell membranes were prepared by homogenization of the cell pellet in 20 mM Tris-HCl with a polytron tissue homogenizer for 10 sec at high speed. Homogenate was centrifuged at 1000 rpm for 5 min at 4° C. […] The final pellet was resuspended in 50 mM Tris-HCl. Cell membranes were incubated with ^3H-histamine (5-70 nM) in the presence or absence of excess histamine (10,000 nM). […] Membranes were harvested by rapid filtration over Whatman GF/C filters and washed 4 times with ice-cold 50 mM Tris HCl. Filters were then dried, mixed with scintillant and counted for radioactivity. SK-N-MC or COS7 cells expressing human histamine H4 receptor were used to measure the affinity of binding of other compounds and their ability to displace ^3H-ligand binding by incubating the above-described reaction in the presence of various concentrations of inhibitor or compound to be tested.

[1] = competition binding with 3H-histamine (5 nM), membranes of SK-N-MC or COS7 cells expressing human H4 receptor, Cheng-Prusoff, KD 5 nM, average of results obtained, read-out: Ki

T1 sequence (Q9H3N8 whole entry): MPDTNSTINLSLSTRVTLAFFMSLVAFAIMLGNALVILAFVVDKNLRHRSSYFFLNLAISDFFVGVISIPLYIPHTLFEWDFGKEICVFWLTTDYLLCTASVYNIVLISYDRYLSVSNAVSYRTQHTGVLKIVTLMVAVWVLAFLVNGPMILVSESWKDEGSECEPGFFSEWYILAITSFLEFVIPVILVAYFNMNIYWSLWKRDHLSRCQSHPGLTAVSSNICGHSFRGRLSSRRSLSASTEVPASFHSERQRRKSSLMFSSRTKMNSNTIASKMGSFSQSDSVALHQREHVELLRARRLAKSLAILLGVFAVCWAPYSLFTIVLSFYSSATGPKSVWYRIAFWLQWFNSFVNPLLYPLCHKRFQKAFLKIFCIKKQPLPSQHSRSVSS

| SMILES | Ki [1] [nM] | Ki [nM] |
| --- | --- | --- |
| CC1CN(c2nc(N)nc3c2oc2ccc(Cl)cc23)CC(C)N1 (mixture of isomers) [Example 128, 8-Chloro-4-(3,5-dimethyl-piperazin-1-yl)-benzo[4,5]furo[3,2-d]pyrimidin-2-ylamine trifluoroacetic acid salt] | > 10000 | – |
| Nc1nc(N2CC[C@@H]3CNC[C@@H]32)c2oc3ccc(Cl)cc3c2n1 (relative stereo) [Example 95, (cis)-8-Chloro-4-(hexahydro-pyrrolo[3,4-b]pyrrol-1-yl)-benzo[4,5]furo[3,2-d]pyrimidin-2-ylamine trifluoroacetic acid salt] | 140 | – |
| COc1ccc2oc3c(N4C[C@H]5CCCN[C@H]5C4)nc(N)nc3c2c1 (relative stereo) [Example 105, (cis)-8-Methoxy-4-(octahydro-pyrrolo[3,4-b]pyridin-6-yl)-benzo[4,5]furo[3,2-d]pyrimidin-2-ylamine trifluoroacetic acid salt] | 14 | – |
| COc1ccc2oc3c(N4C[C@H]5CCN[C@H]5C4)nc(N)nc3c2c1 (relative stereo) [Example 114, (cis)-4-(Hexahydro-pyrrolo[3,4-b]pyrrol-5-yl)-8-methoxy-benzo[4,5]furo[3,2-d]pyrimidin-2-ylamine trifluoroacetic acid salt] | – | 91 |
| OCCNc1nc(N2C[C@H]3CCCN[C@H]3C2)c2oc3ccc(Cl)cc3c2n1 (relative stereo) [Example 117, (cis)-2-[8-Chloro-4-(octahydro-pyrrolo[3,4-b]pyridin-6-yl)-benzo[4,5]furo[3,2-d]pyrimidin-2-ylamino]-ethanol] | 930 | – |
| CN1CCN(c2nc(N)nc3c2oc2ccc(Cl)cc23)CC1 [Example 1, 8-Chloro-4-(4-methyl-piperazin-1-yl)-benzo[4,5]furo[3,2-d]pyrimidin-2-ylamine] | 0.14 | – |
| Nc1nc(N2CC3CCCNC3C2)c2oc3c(Cl)cc(Cl)cc3c2n1 (centres unmarked) [Example 2, 6,8-Dichloro-4-(octahydro-pyrrolo[3,4-b]pyridin-6-yl)-benzo[4,5]furo[3,2-d]pyrimidin-2-ylamine trifluoroacetic acid salt] | 7.1 | – |
| CC(C)N1CCCN(c2nc(N)nc3c2oc2ccc(Cl)cc23)CC1 [Example 3, 8-Chloro-4-(4-isopropyl-[1,4]diazepan-1-yl)-benzo[4,5]furo[3,2-d]pyrimidin-2-ylamine trifluoroacetic acid salt] | 76 | – |
| Nc1nc(N2CCC(N)C2)c2oc3c(Cl)cc(Cl)cc3c2n1 (centres unmarked) [Example 4, 4-(3-Amino-pyrrolidin-1-yl)-6,8-dichloro-benzo[4,5]furo[3,2-d]pyrimidin-2-ylamine trifluoroacetic acid salt] | 31 | – |
| CN[C@@H]1CCN(c2nc(N)nc3c2oc2c(Cl)cc(Cl)cc23)C1 [Example 5, (R)-6,8-Dichloro-4-(3-methylamino-pyrrolidin-1-yl)-benzo[4,5]furo[3,2-d]pyrimidin-2-ylamine trifluoroacetic acid salt] | 1.9 | – |
| CN[C@@H]1CCN(c2nc(N)nc3c2oc2ccccc23)C1 [Example 6, (R)-4-(3-Methylamino-pyrrolidin-1-yl)-benzo[4,5]furo[3,2-d]pyrimidin-2-ylamine citric acid salt] | 3.4 | – |
| Nc1nc(N2CCCNCC2)c2oc3ccc(Cl)cc3c2n1 [Example 7, 8-Chloro-4-[1,4]diazepan-1-yl-benzo[4,5]furo[3,2-d]pyrimidin-2-ylamine trifluoroacetic acid salt] | 1.1 | – |
| Nc1nc(N2CCN3CCCCC3C2)c2oc3ccc(Cl)cc3c2n1 (centres unmarked) [Example 8, 8-Chloro-4-(octahydro-pyrido[1,2-a]pyrazin-2-yl)-benzo[4,5]furo[3,2-d]pyrimidin-2-ylamine] | 16 | – |
| Nc1nc(N2CC3CCCNC3C2)c2oc3ccc(Cl)cc3c2n1 (centres unmarked) [Example 9, 8-Chloro-4-(octahydro-pyrrolo[3,4-b]pyridin-6-yl)-benzo[4,5]furo[3,2-d]pyrimidin-2-ylamine] | – | 2.1 |
| CN1CCCN(c2nc(N)nc3c2oc2ccc(Cl)cc23)CC1 [Example 10, 8-Chloro-4-(4-methyl-[1,4]diazepan-1-yl)-benzo[4,5]furo[3,2-d]pyrimidin-2-ylamine] | 0.74 | – |
| Nc1nc(N2C[C@@H]3C[C@H]2CN3)c2oc3ccc(Cl)cc3c2n1 [Example 11, (S,S)-8-Chloro-4-(2,5-diaza-bicyclo[2.2.1]hept-2-yl)-benzo[4,5]furo[3,2-d]pyrimidin-2-ylamine] | – | 25 |
| CNC1CCN(c2nc(N)nc3c2oc2ccc(Cl)cc23)C1 (centres unmarked) [Example 12, 8-Chloro-4-(3-methylamino-pyrrolidin-1-yl)-benzo[4,5]furo[3,2-d]pyrimidin-2-ylamine] | 0.86 | – |
| Nc1nc(N2CCC[C@H](N)C2)c2oc3ccc(Cl)cc3c2n1 [Example 13, (S)-4-(3-Amino-piperidin-1-yl)-8-chloro-benzo[4,5]furo[3,2-d]pyrimidin-2-ylamine trifluoroacetic acid salt] | 9.6 | – |

| SMILES | Ki [1] [nM] | Ki [nM] |
| --- | --- | --- |
| Nc1nc(N2CCNCC2)c2oc3ccc(Cl)cc3c2n1 [Example 14, 8-Chloro-4-piperazin-1-yl-benzo[4,5]furo[3,2-d]pyrimidin-2-ylamine trifluoroacetic acid salt] | 1.1 | – |
| CN(C)C1CCN(c2nc(N)nc3c2oc2ccc(Cl)cc23)C1 (centres unmarked) [Example 15, 8-Chloro-4-(3-dimethylamino-pyrrolidin-1-yl)-benzo[4,5]furo[3,2-d]pyrimidin-2-ylamine trifluoroacetic acid salt] | 6.2 | – |
| Nc1nc(N2CCC(N)C2)c2oc3ccc(Cl)cc3c2n1 (centres unmarked) [Example 16, 4-(3-Amino-pyrrolidin-1-yl)-8-chloro-benzo[4,5]furo[3,2-d]pyrimidin-2-ylamine trifluoroacetic acid salt] | 2.3 | – |
| CN[C@H]1CCN(c2nc(N)nc3c2oc2ccc(Cl)cc23)C1 [Example 17, (S)-8-Chloro-4-(3-methylamino-pyrrolidin-1-yl)-benzo[4,5]furo[3,2-d]pyrimidin-2-ylamine] | 2.1 | – |
| CN[C@@H]1CCN(c2nc(N)nc3c2oc2ccc(Cl)cc23)C1 [Example 18, (R)-8-Chloro-4-(3-methylamino-pyrrolidin-1-yl)-benzo[4,5]furo[3,2-d]pyrimidin-2-ylamine] | 0.42 | – |
| CN[C@@H]1CCN(c2nc(N)nc3c2oc2ccc(Br)cc23)C1 [Example 19, (R)-8-Bromo-4-(3-methylamino-pyrrolidin-1-yl)-benzo[4,5]furo[3,2-d]pyrimidin-2-ylamine trifluoroacetic acid salt] | 0.74 | – |
| Nc1nc(N2CCN3CCCC3C2)c2oc3ccc(Br)cc3c2n1 (centres unmarked) [Example 20, 8-Bromo-4-(hexahydro-pyrrolo[1,2-a]pyrazin-2-yl)-benzo[4,5]furo[3,2-d]pyrimidin-2-ylamine trifluoroacetic acid salt] | – | 4.7 |
| Nc1nc(N2CCC(N)C2)c2oc3ccccc3c2n1 (centres unmarked) [Example 21, 4-(3-Amino-pyrrolidin-1-yl)-benzo[4,5]furo[3,2-d]pyrimidin-2-ylamine trifluoroacetic acid salt] | 5.7 | – |
| CN(C)[C@@H]1CCN(c2nc(N)nc3c2oc2ccccc23)C1 [Example 22, (R)-4-(3-Dimethylamino-pyrrolidin-1-yl)-benzo[4,5]furo[3,2-d]pyrimidin-2-ylamine trifluoroacetic acid salt] | 12 | – |
| Nc1nc(N2CCNCC2)c2oc3ccccc3c2n1 [Example 23, 4-piperazin-1-yl-benzo[4,5]furo[3,2-d]pyrimidin-2-ylamine trifluoroacetic acid salt] | 21 | – |
| CN(C)[C@@H]1CCN(c2nc(N)nc3c2oc2ccc(Cl)cc23)C1 [Example 24, (R)-8-Chloro-4-(3-dimethylamino-pyrrolidin-1-yl)-benzo[4,5]furo[3,2-d]pyrimidin-2-ylamine trifluoroacetic acid salt] | 5.5 | – |
| Nc1nc(N2CC[C@@H](N)C2)c2oc3ccc(Cl)cc3c2n1 [Example 25, (R)-4-(3-Amino-pyrrolidin-1-yl)-8-chloro-benzo[4,5]furo[3,2-d]pyrimidin-2-ylamine trifluoroacetic acid salt] | 2.4 | – |
| NC[C@@H]1CCN(c2nc(N)nc3c2oc2ccc(Cl)cc23)C1 [Example 26, (S)-4-(3-Aminomethyl-pyrrolidin-1-yl)-8-chloro-benzo[4,5]furo[3,2-d]pyrimidin-2-ylamine trifluoroacetic acid salt] | 90 | – |
| Nc1nc(N2CC3CNCC3C2)c2oc3ccc(Cl)cc3c2n1 (centres unmarked) [Example 27, 8-Chloro-4-(hexahydro-pyrrolo[3,4-c]pyrrol-2-yl)-benzo[4,5]furo[3,2-d]pyrimidin-2-ylamine trifluoroacetic acid salt] | 110 | – |
| Nc1nc(N2CCC[C@@H](N)C2)c2oc3ccc(Cl)cc3c2n1 [Example 28, (R)-4-(3-Amino-piperidin-1-yl)-8-chloro-benzo[4,5]furo[3,2-d]pyrimidin-2-ylamine trifluoroacetic acid salt] | 110 | – |
| NCC1CCN(c2nc(N)nc3c2oc2ccc(Cl)cc23)C1 (centres unmarked) [Example 29, 4-(3-Aminomethyl-pyrrolidin-1-yl)-8-chloro-benzo[4,5]furo[3,2-d]pyrimidin-2-ylamine trifluoroacetic acid salt] | 140 | – |
| NC[C@H]1CCN(c2nc(N)nc3c2oc2ccc(Cl)cc23)C1 [Example 30, (R)-4-(3-Aminomethyl-pyrrolidin-1-yl)-8-chloro-benzo[4,5]furo[3,2-d]pyrimidin-2-ylamine trifluoroacetic acid salt] | 140 | – |
